{
  "source": "ChEMBL document CHEMBL1201862",
  "about": "“PubChem BioAssay data set” (2004)",
  "key": {"[1]": {"test_system": "Streptococcus sp. 'group A'", "assay": "Streptococcus pyogenes SK(-)GAS viability under kanamycin – luminescence, BacTiterGlo, confirmation, counter-screen for streptokinase expression inhibitor project, dose response (AID 1900)", "type": "functional, organism-based"}, "[2]": {"test_system": "Streptococcus", "assay": "Luminescence Microorganism-Based Dose Response Follow up to Identify Compounds Cytotoxic to Streptococcus. [Related pubchem assays: 1677 (Project Summary), 1915, 1914, 1902 (Retest at Dose), 1900 (Counter Screen), 1662 (Primary HTS)]", "type": "functional, organism-based"}, "[3]": {"molecular_target": "T1, Streptokinase A (Streptococcus pyogenes serotype M1, UniProt P10520)", "T1 sequence (P10520 whole entry)": "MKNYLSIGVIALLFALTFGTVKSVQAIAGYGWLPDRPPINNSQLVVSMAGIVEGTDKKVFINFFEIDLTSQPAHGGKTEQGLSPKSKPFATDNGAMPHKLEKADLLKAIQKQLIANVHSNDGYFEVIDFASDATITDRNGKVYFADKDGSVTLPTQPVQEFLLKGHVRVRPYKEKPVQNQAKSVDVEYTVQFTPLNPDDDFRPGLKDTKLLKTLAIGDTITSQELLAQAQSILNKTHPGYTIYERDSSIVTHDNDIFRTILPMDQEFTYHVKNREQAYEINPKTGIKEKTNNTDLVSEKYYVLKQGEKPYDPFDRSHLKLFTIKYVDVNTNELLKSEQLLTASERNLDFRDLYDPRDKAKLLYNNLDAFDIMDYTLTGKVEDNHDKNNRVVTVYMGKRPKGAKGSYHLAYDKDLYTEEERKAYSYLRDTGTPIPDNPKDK", "assay": "viability-normalized secreted streptokinase activity reduction – plasminogen activation absorbance, OD405, dose response (AID 1914);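 further: secreted streptokinase activity via plasminogen activation per viability signal from cell pellet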", "type": "functional, Streptococcus pyogenes M1 GAS"}, "[4]": {"test_system": "Streptococcus", "assay": "GAS UMAA2166 growth inhibition – luminescence, BacTiterGlo, counter-screen for streptokinase expression inhibitor project, dose response (AID 1915)", "type": "functional, organism-based"}, "[5]": {"molecular_target": "Cytochrome P450 2D6 (Homo sapiens, UniProt P10635)", "sequence (P10635 whole entry)": "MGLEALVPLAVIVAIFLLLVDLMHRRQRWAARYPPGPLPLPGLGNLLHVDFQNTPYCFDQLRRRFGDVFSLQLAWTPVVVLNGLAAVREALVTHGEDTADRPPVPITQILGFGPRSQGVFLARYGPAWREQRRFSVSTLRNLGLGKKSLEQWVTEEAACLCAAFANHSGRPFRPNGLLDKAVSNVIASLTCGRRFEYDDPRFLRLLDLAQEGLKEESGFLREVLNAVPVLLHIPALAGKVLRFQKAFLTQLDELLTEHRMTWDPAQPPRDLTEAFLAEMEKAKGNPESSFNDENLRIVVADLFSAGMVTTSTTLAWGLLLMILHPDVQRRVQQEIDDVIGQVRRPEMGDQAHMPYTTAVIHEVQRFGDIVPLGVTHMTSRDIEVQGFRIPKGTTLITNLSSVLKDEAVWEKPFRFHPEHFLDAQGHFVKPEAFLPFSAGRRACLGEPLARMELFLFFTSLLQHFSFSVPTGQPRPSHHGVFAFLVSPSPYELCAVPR", "assay": "qHTS Assay for Inhibitors and Substrates of Cytochrome P450 2D6. [Related pubchem assays: 410 ]", "type": "ADME", "conditions": "read-out: Potency"}, "[6]": {"molecular_target": "T2, Bcl-2-like protein 10 (Homo sapiens, UniProt Q9HD36)", "T2 sequence (Q9HD36 whole entry)": "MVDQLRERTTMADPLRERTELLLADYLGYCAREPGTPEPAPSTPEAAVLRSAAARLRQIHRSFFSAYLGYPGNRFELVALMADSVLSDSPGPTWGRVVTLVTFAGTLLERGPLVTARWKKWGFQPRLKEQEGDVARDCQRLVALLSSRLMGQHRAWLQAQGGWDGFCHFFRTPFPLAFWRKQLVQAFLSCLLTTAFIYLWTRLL", "assay": "Concentration-response of Bcl-B inhibitors by biochemical FP with TR3 (AID 1243)", "type": "functional"}, "[7]": {"molecular_target": "Serine/threonine-protein phosphatase PP1-alpha catalytic subunit (Homo sapiens, UniProt P62136)", "sequence (P62136 whole entry)": "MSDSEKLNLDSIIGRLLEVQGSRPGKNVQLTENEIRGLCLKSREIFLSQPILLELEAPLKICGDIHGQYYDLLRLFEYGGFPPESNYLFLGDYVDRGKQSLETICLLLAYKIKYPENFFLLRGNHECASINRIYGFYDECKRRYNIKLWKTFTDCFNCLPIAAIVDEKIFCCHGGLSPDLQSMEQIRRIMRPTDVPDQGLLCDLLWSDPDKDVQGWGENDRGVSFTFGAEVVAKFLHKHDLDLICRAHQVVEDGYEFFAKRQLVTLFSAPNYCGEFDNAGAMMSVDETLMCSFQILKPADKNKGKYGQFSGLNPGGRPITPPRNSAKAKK", "assay": "inhibition of protein phosphatase 1 activity – biochemical, fluorescence, dose response (AID 2403);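 further: phosphatase turnover of OMFP into fluorescent 3-O-methylfluorescein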"}, "[8]": {"molecular_target": "Serine/threonine-protein phosphatase (Homo sapiens, UniProt Q9BPW0)", "sequence (Q9BPW0 whole entry)": "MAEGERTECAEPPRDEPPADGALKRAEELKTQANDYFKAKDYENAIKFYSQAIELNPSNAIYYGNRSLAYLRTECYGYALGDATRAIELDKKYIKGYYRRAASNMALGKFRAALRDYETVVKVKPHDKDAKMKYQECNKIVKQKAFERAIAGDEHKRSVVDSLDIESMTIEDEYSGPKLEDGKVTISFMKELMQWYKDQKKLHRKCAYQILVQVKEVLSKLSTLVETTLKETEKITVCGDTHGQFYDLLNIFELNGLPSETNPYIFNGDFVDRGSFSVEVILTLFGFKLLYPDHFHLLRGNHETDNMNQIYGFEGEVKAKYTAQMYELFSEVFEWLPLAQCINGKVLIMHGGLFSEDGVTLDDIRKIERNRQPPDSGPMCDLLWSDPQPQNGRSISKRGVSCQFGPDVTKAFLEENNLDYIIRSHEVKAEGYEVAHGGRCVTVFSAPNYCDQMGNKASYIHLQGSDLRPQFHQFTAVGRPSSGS", "assay": "Counterscreen for inhibitors of PP1: fluorescence-based biochemical high throughput dose response assay to identify inhibitors of Protein Phosphatase 5 (PP5). [Related pubchem assays: 2034 (Summary (PP5 inhibitors)), 1987 (PP5 inhibitors in singlate), 2235 (PP1 inhibitors in singlate)]"}, "[9]": {"molecular_target": "T3, Estrogen receptor (Homo sapiens, UniProt P03372)", "T3 sequence (P03372 whole entry)": "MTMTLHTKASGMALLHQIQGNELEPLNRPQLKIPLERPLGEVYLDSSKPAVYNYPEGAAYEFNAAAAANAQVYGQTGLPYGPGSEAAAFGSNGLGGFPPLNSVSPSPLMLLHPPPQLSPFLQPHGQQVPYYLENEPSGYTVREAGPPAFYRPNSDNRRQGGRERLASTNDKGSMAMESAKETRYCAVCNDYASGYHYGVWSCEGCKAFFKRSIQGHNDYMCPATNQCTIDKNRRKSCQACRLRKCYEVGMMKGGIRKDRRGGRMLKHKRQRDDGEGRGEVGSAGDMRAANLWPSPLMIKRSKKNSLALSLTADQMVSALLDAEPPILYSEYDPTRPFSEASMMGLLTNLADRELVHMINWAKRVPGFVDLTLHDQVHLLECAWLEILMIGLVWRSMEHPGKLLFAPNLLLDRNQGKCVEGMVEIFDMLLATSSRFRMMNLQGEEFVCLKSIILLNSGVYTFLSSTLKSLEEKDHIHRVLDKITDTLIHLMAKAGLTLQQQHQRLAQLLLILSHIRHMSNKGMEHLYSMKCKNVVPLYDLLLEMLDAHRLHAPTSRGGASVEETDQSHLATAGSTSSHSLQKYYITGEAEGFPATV"}, "[10]": {"molecular_target": "NS3 (Hepatitis C virus, UniProt A3EZJ3)", "sequence (A3EZJ3 whole entry)": "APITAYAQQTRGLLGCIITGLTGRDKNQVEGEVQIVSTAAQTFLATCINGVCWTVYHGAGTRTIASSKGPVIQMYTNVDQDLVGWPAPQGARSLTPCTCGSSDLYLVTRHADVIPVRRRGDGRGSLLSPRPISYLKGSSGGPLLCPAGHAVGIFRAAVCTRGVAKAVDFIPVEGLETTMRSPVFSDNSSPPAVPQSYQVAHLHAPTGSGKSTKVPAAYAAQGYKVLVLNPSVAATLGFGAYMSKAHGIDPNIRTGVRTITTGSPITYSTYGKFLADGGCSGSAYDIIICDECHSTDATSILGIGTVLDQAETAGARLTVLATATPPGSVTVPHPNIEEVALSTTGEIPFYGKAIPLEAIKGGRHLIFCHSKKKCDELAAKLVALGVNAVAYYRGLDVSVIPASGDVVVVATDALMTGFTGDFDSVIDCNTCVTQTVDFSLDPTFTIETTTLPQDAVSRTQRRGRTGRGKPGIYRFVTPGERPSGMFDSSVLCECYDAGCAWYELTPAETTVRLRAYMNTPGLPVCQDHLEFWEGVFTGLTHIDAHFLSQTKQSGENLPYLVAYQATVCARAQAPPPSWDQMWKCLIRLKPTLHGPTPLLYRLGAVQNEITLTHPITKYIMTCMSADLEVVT", "assay": "PubChem AID 2173", "set-up": "species or system Hepacivirus hominis"}, "[11]": {"molecular_target": "T4, Estrogen receptor beta (Homo sapiens, UniProt Q92731)", "T4 sequence (Q92731 whole entry)": "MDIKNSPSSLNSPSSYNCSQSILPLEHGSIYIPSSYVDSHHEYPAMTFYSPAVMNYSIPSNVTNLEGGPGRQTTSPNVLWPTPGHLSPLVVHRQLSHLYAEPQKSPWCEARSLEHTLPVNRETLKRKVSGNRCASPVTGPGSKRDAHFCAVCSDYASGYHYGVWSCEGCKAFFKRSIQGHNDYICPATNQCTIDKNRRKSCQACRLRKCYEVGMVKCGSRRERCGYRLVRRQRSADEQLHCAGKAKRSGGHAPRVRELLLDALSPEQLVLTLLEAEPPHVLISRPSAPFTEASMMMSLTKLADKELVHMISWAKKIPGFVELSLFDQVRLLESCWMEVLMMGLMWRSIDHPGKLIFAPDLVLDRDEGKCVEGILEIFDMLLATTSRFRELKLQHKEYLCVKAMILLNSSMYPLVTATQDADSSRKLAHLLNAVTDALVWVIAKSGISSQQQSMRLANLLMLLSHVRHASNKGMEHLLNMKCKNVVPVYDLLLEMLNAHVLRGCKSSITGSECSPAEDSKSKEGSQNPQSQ"}, "[12]": {"molecular_target": "T4, Estrogen receptor beta", "assay": "blockers of SRC-3 recruitment to ERβ – biochemical, ELISA, streptavidin-HRP readout, orthogonal assay, confirmation (AID 1060)"}, "[13]": {"molecular_target": "Induced myeloid leukemia cell differentiation protein Mcl-1 (Homo sapiens, UniProt Q07820)", "sequence (Q07820 whole entry)": "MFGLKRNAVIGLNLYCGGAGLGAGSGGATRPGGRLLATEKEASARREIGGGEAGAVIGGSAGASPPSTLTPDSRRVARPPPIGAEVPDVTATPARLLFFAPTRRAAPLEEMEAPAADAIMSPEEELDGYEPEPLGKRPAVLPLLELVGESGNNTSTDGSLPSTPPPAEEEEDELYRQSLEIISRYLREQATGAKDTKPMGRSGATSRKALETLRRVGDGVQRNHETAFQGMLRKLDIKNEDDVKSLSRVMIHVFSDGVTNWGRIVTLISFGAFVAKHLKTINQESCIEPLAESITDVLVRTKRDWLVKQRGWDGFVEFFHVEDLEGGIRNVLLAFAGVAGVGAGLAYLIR", "type": "functional"}, "[14]": {"molecular_target": "T5, Neuropeptide Y receptor type 2 (Homo sapiens, UniProt P49146)", "T5 sequence (P49146 whole entry)": "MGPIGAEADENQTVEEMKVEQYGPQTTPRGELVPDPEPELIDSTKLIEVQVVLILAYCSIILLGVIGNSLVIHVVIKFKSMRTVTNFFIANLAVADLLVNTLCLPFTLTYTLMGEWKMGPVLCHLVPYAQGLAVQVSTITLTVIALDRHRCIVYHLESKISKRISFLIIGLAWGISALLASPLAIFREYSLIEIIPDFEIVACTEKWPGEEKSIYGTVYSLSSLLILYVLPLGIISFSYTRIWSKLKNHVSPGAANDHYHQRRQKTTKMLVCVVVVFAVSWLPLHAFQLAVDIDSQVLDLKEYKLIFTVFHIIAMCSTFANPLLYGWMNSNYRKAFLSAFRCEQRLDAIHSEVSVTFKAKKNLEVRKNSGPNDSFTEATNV", "assay": "IC50 for human NPY-Y2 blockade – cell-based, counter-screen for NPY-Y1 antagonist project, dose response (AID 1278)", "type": "functional"}, "[15]": {"molecular_target": "T6, Neuropeptide Y receptor type 1 (Homo sapiens, UniProt P25929)", "T6 sequence (P25929 whole entry)": "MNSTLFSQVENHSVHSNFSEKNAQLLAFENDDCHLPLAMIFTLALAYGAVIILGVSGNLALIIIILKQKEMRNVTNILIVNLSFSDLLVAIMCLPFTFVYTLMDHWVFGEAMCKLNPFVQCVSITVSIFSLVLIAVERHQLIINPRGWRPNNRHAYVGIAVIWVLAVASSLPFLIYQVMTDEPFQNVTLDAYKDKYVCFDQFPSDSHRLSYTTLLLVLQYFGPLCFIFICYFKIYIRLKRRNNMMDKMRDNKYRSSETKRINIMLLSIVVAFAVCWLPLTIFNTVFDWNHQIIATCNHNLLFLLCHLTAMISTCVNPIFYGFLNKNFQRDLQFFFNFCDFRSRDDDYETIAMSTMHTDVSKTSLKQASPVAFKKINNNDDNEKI", "assay": "IC50 of human NPY-Y1 blockers – cell-based, dose response (AID 1277)", "type": "functional"}, "[16]": {"molecular_target": "Epstein-Barr nuclear antigen 1 (Epstein-Barr virus (strain B95-8) (HHV-4) (Human herpesvirus 4), UniProt P03211)", "sequence (P03211 whole entry)": "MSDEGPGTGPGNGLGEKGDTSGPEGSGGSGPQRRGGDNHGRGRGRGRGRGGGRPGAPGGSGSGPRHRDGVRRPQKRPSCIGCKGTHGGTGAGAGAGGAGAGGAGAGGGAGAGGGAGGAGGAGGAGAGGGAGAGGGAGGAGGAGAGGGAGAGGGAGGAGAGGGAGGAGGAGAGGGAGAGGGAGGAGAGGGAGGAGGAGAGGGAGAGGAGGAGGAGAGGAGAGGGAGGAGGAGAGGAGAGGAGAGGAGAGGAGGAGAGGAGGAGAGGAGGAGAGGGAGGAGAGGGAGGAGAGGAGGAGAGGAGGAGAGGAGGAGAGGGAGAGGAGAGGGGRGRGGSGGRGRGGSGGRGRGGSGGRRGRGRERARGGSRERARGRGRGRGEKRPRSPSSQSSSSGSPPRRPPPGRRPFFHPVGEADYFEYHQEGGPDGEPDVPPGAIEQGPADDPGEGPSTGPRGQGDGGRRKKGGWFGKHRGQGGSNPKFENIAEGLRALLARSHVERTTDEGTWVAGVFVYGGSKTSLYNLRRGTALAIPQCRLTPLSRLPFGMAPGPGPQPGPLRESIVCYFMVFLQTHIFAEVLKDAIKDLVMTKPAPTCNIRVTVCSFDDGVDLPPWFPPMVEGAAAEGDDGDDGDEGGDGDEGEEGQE", "assay": "inhibition of EBV nuclear antigen 1 DNA binding – biochemical, fluorescence polarization, 1536-well, dose response (AID 2381);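 further: fluorescence polarization of a Cy5 DNA probe bound by EBNA-1 protein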", "set-up": "species or system human gammaherpesvirus 4"}, "[17]": {"molecular_target": "Lytic switch protein BZLF1 (Epstein-Barr virus (strain B95-8) (HHV-4) (Human herpesvirus 4), UniProt P03206)", "sequence (P03206 whole entry)": "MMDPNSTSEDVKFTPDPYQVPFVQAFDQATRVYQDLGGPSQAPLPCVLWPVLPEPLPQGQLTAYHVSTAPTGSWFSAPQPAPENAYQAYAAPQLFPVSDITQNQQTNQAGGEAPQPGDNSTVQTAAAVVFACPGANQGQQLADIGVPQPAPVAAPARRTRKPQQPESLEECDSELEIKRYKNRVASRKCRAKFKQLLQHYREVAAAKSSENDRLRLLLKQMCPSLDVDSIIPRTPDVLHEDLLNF", "assay": "inhibition of BZLF1 ZTA DNA binding – biochemical, fluorescence polarization, Epstein-Barr virus, 1536-well, counter-screen for EBNA-1 inhibitor project, dose response (AID 2377);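 further: fluorescence polarization of Cy5-labelled ZRE DNA probe bound by purified Zta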", "set-up": "species or system human gammaherpesvirus 4"}},
  "note": "Active and inactive are the calls of the source.",
  "data": [
    {"compound": "COc1ccc(Nc2ncnc3scc(-c4ccc(OC)cc4)c23)cc1", "values": [
      {"measurement": "EC50", "setting": "[1]", "value": "122 µM (active)"},
      {"measurement": "EC50", "setting": "[2]", "value": "> 500 µM (not active)"},
      {"measurement": "EC50", "setting": "[3]", "value": "10.5 µM (active)"},
      {"measurement": "EC50", "setting": "[4]", "value": "> 150 µM (not active)"}
    ]},
    {"compound": "COC1=C[C@H]2[C@@H]3Cc4ccc(OC)c(O)c4[C@@]2(CCN3C)CC1=O", "values": [
      {"measurement": "AC50", "setting": "[5]", "value": "20 µM (inconclusive)"}
    ]},
    {"compound": "O=C(O)C1Nc2c(cccc2[N+](=O)[O-])C2C=CCC12", "note": "(stereo not given)", "values": [
      {"measurement": "EC50", "setting": "[6]", "value": "1.2 µM (active)"}
    ]},
    {"compound": "O=S(=O)(Cc1cc(NCc2ccccc2)nc(-c2ccccn2)n1)c1ccccc1", "values": [
      {"measurement": "EC50", "setting": "[1]", "value": "21 µM (active)"},
      {"measurement": "IC50", "setting": "[7]", "value": "7.88 µM (active)"},
      {"measurement": "EC50", "setting": "[3]", "value": "> 150 µM (not active)"},
      {"measurement": "IC50", "setting": "[8]", "value": "> 67 µM (not active)"},
      {"measurement": "EC50", "setting": "[4]", "value": "> 150 µM (not active)"}
    ]},
    {"compound": "C=CCSC1=N/C(=C\\C=C\\c2ccco2)C(=O)S1", "values": [
      {"measurement": "IC50", "setting": "[9]", "value": "> 50 µM (not active)"},
      {"measurement": "IC50", "setting": "[10]", "value": "11 µM (not active)"},
      {"measurement": "IC50", "setting": "[11]", "value": "10.3 µM (active)"},
      {"measurement": "IC50", "setting": "[12]", "value": "> 50 µM (not active)"},
      {"measurement": "IC50", "setting": "[13]", "value": "5.61 µM (active)"}
    ]},
    {"compound": "COc1ccccc1CN(Cc1cc2cc(C)ccc2nc1O)Cc1nnnn1Cc1ccco1", "values": [
      {"measurement": "IC50", "setting": "[14]", "value": "> 35 µM (not active)"},
      {"measurement": "IC50", "setting": "[15]", "value": "22.7 µM (not active)"}
    ]},
    {"compound": "N#Cc1ccc(N2Cc3ccccc3/C2=N/C(=O)Nc2ccc(Cl)cc2)cc1", "values": [
      {"measurement": "IC50", "setting": "[16]", "value": "8.14 µM (active)"},
      {"measurement": "IC50", "setting": "[17]", "value": "> 111 µM (not active)"}
    ]}
  ]
}
